Data as given in US20080287515A1, “Topical compositions containing metronidazole” (priority 2007, published 2008).

Assays:
[1] = Physical stability test of aqueous metronidazole compositions (crystal formation or precipitation); type: physicochemical; conditions: for Concentration required to obtain a stable aqueous solution of 1.0% metronidazole: as the only solubility enhancing agent
Protocol: The solubility enhancing effect of the combination of urea and hydroxyalkyl urea in increasing the solubility of metronidazole in the aqueous compositions is evaluated by physical stability of the prepared compositions.
Therefore, the formulations are subject to a physical stability test. The protocol for the stability test is as follows: metronidazole and the solubility enhancing agents are combined with water either at room temperature or elevated temperature while stirring until dissolved. The solutions are permitted to cool to room temperature. Customary auxiliaries and additives may be added to the aqueous solutions containing solubilized metronidazole and solubility enhancing agents. The solutions may be gelled by using the suitable gelling agents. The compositions both in gel or solution form are then packaged in clear glass vials and sealed. The vials are kept at room temperature for 24 hours and monitored for crystal formation or precipitation. After 24 hours, the vials are placed in a refrigerator maintained at a temperature of about 4° C. for 7 days. After 7 days, the vials are removed from the refrigerator. Evidence of crystal formation or precipitation in the compositions is examined.
Each formulation was prepared by combining urea and metronidazole in water (q.s 100%). The mixture was kept at a temperature of about 45° C. while stirring until dissolved. The solutions were permitted to cool to room temperature, packaged and sealed in glass vials. The stability tests described in Example 1 were performed and the test results were recorded.
Each formulation was prepared by combining N-2-hydroxyethyl urea and metronidazole in water (q.s 100%). The mixture was kept at a temperature of about 45°C. while stirring until dissolved. The solutions were permitted to cool to room temperature, packaged and sealed in glass vials. The stability tests described in Example 1 were performed and the test results were recorded.
Each formulation was prepared by combining N-2-hydroxyethyl urea, urea, and metronidazole in water (q.s 100%). The mixture was kept either at room temperature or at a temperature of about 45° C. while stirring until dissolved. The solutions were permitted to cool to room temperature, packaged and sealed in glass vials. The stability tests described in Example 1 were performed and the test results were recorded. […]

[2] = at 25 °C; cited from earlier work

For `Cc1ncc([N+](=O)[O-])n1CCO` [Metronidazole, 1-(2-hydroxyethyl)-2-methyl-5-nitroimidazole], the “Results from stability test” value ([1]; 1.0% N-2-hydroxyethyl urea, 7.0% urea, 1.0% metronidazole in water, 7 days at about 4 °C) was “Crystals”, the “Results from stability test” value ([1]; 1.0% N-2-hydroxyethyl urea, 8.0% urea, 1.0% metronidazole in water, 7 days at about 4 °C) was “Clear” and the “Results from stability test” value ([1]; 1.0% N-2-hydroxyethyl urea, 9.0% urea, 1.0% metronidazole in water, 7 days at about 4 °C) was “Clear”. For the same compound, the “Results from stability test” value ([1]; 5.0% N-2-hydroxyethyl urea, 2.0% urea, 1.0% metronidazole in water, 7 days at about 4 °C) was “Clear”, the “Results from stability test” value ([1]; 5.0% N-2-hydroxyethyl urea, 2.0% urea, 1.0% metronidazole in water, 7 days at about 4 °C, listed as metronidazole) was “stable” and the “Results from stability test” value ([1]; 5.0% N-2-hydroxyethyl urea, 3.0% urea, 1.0% metronidazole in water, 7 days at about 4 °C) was “Clear”. The “Results from stability test” value ([1]; 5.0% N-2-hydroxyethyl urea, 4.0% urea, 1.0% metronidazole in water, 7 days at about 4 °C) was “Clear”, the “Results from stability test” value ([1]; 5.0% N-2-hydroxyethyl urea, 5.0% urea, 1.0% metronidazole in water, 7 days at about 4 °C) was “Clear” and the “Results from stability test” value ([1]; 7% urea, 1.0% metronidazole in water, 24 h room temperature then 7 days at about 4 °C) was “Crystals formed”. For the same compound, the “Results from stability test” value ([1]; 8.0% N-2-hydroxyethyl urea, 1.0% urea, 1.0% metronidazole in water, 7 days at about 4 °C) was “Crystals”, the “Results from stability test” value ([1]; 8.0% N-2-hydroxyethyl urea, 8.0% urea, 1.2% metronidazole in water, 7 days at about 4 °C) was “Clear” and the “Results from stability test” value ([1]; 8% urea, 1.0% metronidazole in water, 24 h room temperature then 7 days at about 4 °C) was “Crystals formed”. The “Results from stability test” value ([1]; 9.0% N-2-hydroxyethyl urea, 1.0% urea, 1.0% metronidazole in water, 7 days at about 4 °C) was “Crystals”, the “Results from stability test” value ([1]; 9% urea, 1.0% metronidazole in water, 24 h room temperature then 7 days at about 4 °C) was “Crystals formed” and the “Results from stability test” value ([1]; 10.0% N-2-hydroxyethyl urea, 1.0% urea, 1.0% metronidazole in water, 7 days at about 4 °C) was “Clear”. For the same compound, the “Results from stability test” value ([1]; 10% urea, 1.0% metronidazole in water, 24 h room temperature then 7 days at about 4 °C) was “Clear”, the “Results from stability test” value ([1]; 13% N-2-hydroxyethyl urea, 1.0% metronidazole in water, 24 h room temperature then 7 days at about 4 °C) was “Crystals formed” and the “Results from stability test” value ([1]; 14% N-2-hydroxyethyl urea, 1.0% metronidazole in water, 24 h room temperature then 7 days at about 4 °C) was “Crystals formed”. The “Results from stability test” value ([1]; 15% N-2-hydroxyethyl urea, 1.0% metronidazole in water, 24 h room temperature then 7 days at about 4 °C) was “Crystals formed” and the “Results from stability test” value ([1]; 16% N-2-hydroxyethyl urea, 1.0% metronidazole in water, 24 h room temperature then 7 days at about 4 °C) was “Clear”.
In the case of `NC(=O)NCCO` [N-2-hydroxyethyl urea], the “Concentration required to obtain a stable aqueous solution of 1.0% metronidazole” value [1] was “about 16%” and the “Concentration of N-2-hydroxyethyl urea needed to obtain a stable aqueous solution of 1.0% metronidazole” value ([1]; concentration of urea is 1.0%) was ≥ 9.0%.
In the case of `NC(N)=O` [urea], the “Concentration required to obtain a stable aqueous solution of 1.0% metronidazole” value [1] was “about 10%”, the “Concentration of urea needed to obtain a stable aqueous solution of 1.0% metronidazole” value ([1]; concentration of N-2-hydroxyethyl urea is 1.0%) was ≥ 8.0% and the “N-2-hydroxyethyl urea functionally equivalent to 1% urea in inducing the solubility enhancing effect” value ([1]; from Examples 2 and 3) was “about 1.6%”. For the same compound, the Water solubility limit [2] was “about 50 % by weight”.
